From US20060084675A1, “Combined treatment with artesunate and an epidermal growth factor receptor kinase inhibitor” (priority 2004, published 2006)
“And” between values parts separate entries of the source, which are not always exact repeats. Equal values may be shown once. Read-outs that look alike come from different tables or passages of the source.

Legend:
G-1265GM = test: Growth inhibition assay; format: cell-based; details: Homo sapiens
Method: Nine established GBM cell lines derived from histopathologically confirmed neurosurgical specimens obtained in the Department for Neurosurgery, University of Gottingen, Germany, were maintained in RPMI 1640 medium (BioWhittaker, Walkersville, Md., U.S.A.) supplemented with 10% heat-inactivated fetal calf serum and incubated in a humidified 5% CO2 atmosphere at 37° C. Medium was exchanged twice weekly, and cells were passaged upon reaching subconfluence. At the beginning of the study, all cell lines were beyond their 20th passage.
(§1) The in vitro response to cytostatic drugs was evaluated by means of a growth inhibition assay. Aliquots of 5×10^3 cells/ml were seeded in culture medium, and drugs were added at different concentrations. Cells were counted 10 days after seeding. These growth curves represent the net outcome of cell proliferation and cell death. Cell numbers were quantitated each in eight independent determinations.

G-599GM cell line = test: Growth inhibition assay (incl. isobolographic analysis); format: cell-based; details: Homo sapiens; for IC50: read-out: IC50, drug alone
Method: (§2) Nine established GBM cell lines derived from histopathologically confirmed neurosurgical specimens obtained in the Department for Neurosurgery, University of Gottingen, Germany, were maintained in RPMI 1640 medium (BioWhittaker, Walkersville, Md., U.S.A.) supplemented with 10% heat-inactivated fetal calf serum and incubated in a humidified 5% CO2 atmosphere at 37° C. Medium was exchanged twice weekly, and cells were passaged upon reaching subconfluence. At the beginning of the study, all cell lines were beyond their 20th passage. The in vitro response to cytostatic drugs was evaluated by means of a growth inhibition assay. Aliquots of 5×10^3 cells/ml were seeded in culture medium, and drugs were added at different concentrations. Cells were counted 10 days after seeding. These growth curves represent the net outcome of cell proliferation and cell death. Cell numbers were quantitated each in eight independent determinations. […] G. and Peckham, M. J. (1979) Int. J. Radiat. Oncol. Biol. Phys. 5:85-91; Berenbaum, M. C. (1981) Adv. Cancer Res. 35:269-335).

U-87MG cells = test: Growth inhibition assay; format: cell-based; details: Homo sapiens, 240 h, single drug, cells counted 10 days after seeding, read-out: IC50 calculated from the dose-response curves
Method: (§3) The establishment of the parental human GBM cell line U-87MG and its derivatives which overexpress exogenous wild-type epidermal growth factor receptor (U-87MG.WT-2N), tyrosine kinase-deficient EGFR (U-87MG.DK-2N), EGFR with a genomic deletion of exons 2 to 7 (U-87MG.ΔEGFR), or control expression vector (U-87MG.LUX), respectively, has been described elsewhere (Huang, H-J S et al. (1997) J. Biol. Chem. 272:2927-2935). The cell lines were provided by Dr. W. K. Cavenee (Ludwig Institute for Cancer Research, San Diego, Calif., U.S.A.). Cell culture conditions of these cell lines were as described (Nagane M, et al. (1996) Cancer Res. 56:5079-5086).
as §1

U-87MG.WT-2N cells = test: Growth inhibition assay; format: cell-based; details: Homo sapiens
Method: as §3, §1

[1] = patients with advanced solid malignancies, phase I; cited from earlier work
[2] = intravenous application of 2 mg/kg; cited from earlier work
14 GBM cell lines = test: Growth inhibition assay, panel; format: cell-based; details: Homo sapiens; ART alone; range over 14 cell lines
Excerpt: as §2, with “(1997) J. Biol. Chem. 272:2927-2935). The cell lines were provided by Dr. W. K. Cavenee (Ludwig Institute for Cancer Research, San Diego, Calif., U.S.A.). Cell culture conditions of these cell lines were as described ([…], et al. (1996) Cancer Res. 56:5079-5086). Nine” for “Nine”

SMILES | inhibition at 1 µM (G-1265GM) | IC50 (G-599GM cell line) | inhibition at 1 µM (G-599GM cell line; read-out: growth inhibition) | IC50 (U-87MG cells) | inhibition at 1 µM (U-87MG.WT-2N cells) | average minimal steady state plasma concentration [1] | IC50 (G-599GM cell line; single drug) | peak plasma concentration [2] | IC50 (14 GBM cell lines)
C#Cc1cccc(Nc2ncnc3cc(OCCOC)c(OCCOC)cc23)c1 [OSI-774, [6,7-bis(2-methoxyethoxy)-4-quinazolin-4-yl]-(3-ethynylphenyl)amine] | -1.79% | 1.3 µM | 23.4% | 8.6 µM | 33.8% | 1.2 μg/ml and 3 μM | – | – | –
C[C@H]1[C@H](OC(=O)CCC(=O)O)O[C@@H]2O[C@@]3(C)CC[C@H]4[C@H](C)CC[C@@H]1[C@@]24OO3 [ART, artesunate] | – | – | – | – | – | – | 4.2 µM | 6.88 ± 4.69 µM | 1.5 to 18.5 µM
